{"source": "patent US20080293583A1", "about": "“Methods for diagnosing mood disorders” (Wyeth, priority 2003, published 2008)", "type_in_all_cases": "in vivo", "key": {"[1]": {"tested_on": "60S Ribosomal Protein L35A", "test": "2-DE proteome analysis of rat hippocampus: Ribosomal Protein L35A", "settings": "rat hippocampus cytosolic extract, 10 mg/kg i.p. daily 14 days, vs control; gel spot 92", "procedure": "(§1) Animal dosing. Adult male Sprague Dawley rats weighing 230-320 g were housed with ad libitum access to food and water. After 1 week of habituation, rats were administered either an antidepressant or vehicle alone. The following drugs were administered intraperitoneally (i.p.): fluoxetine (10 mg/kg daily), venlafaxine (10 mg/kg daily) or vehicle alone (1 ml/kg normal saline daily) for 14 days (n=3 rats per group).\n(§2) Sample preparation and cytosolic protein extraction. The animals were euthanized and hippocampi were rapidly dissected from the whole brain. Samples from each treatment group were pooled and stored at −85° C. Cytosolic extracts were prepared using the universal extraction kit from Sigma (prot-two) as follows: soluble cytoplasmic extraction reagent (S2688) was added to the hippocampal tissue (10 ml/250 mg wet weight). […]\n(§3) Two-dimensional gel electrophoresis. […] Molecular masses were determined by running standard protein markers (Genomic Solutions Inc.), covering the range 10-200 kDa as well as internal verification via landmark proteins within the gel. […]\n(§4) Protein fixation, silver staining and 2-D gel comparisons. […] Protein spots were outlined (first automatically and then manually) and quantified using the HT analyzer v2.2 software (Genomic Solutions Inc.). The software calculated the relative spot volume of the proteins compared with the total amount of protein in the gel. […]"}, "D-dopachrome tautomerase": {"tested_on": "D-dopachrome tautomerase", "test": "2-DE proteome analysis of rat hippocampus: D-dopachrome tautomerase", "settings": "rat hippocampus cytosolic extract, 10 mg/kg i.p. daily 14 days, vs control; gel spot 93", "procedure": "as §1, §2, §3, §4"}, "[2]": {"tested_on": "Hydroxysteroid sulfotransferase A (Androsterone-sulfating sulfotransferase)", "test": "2-DE proteome analysis of rat hippocampus: Hydroxysteroid sulfotransferase A", "settings": "rat hippocampus cytosolic extract, 10 mg/kg i.p. daily 14 days, vs control; gel spot 79", "procedure": "as §1, §2, §3, §4"}, "[3]": {"tested_on": "NG, NG-Dimethylarginine Dimethylaminohydrolase 1 (DDAH1)", "test": "2-DE proteome analysis of rat hippocampus: DDAH1", "settings": "rat hippocampus cytosolic extract, 10 mg/kg i.p. daily 14 days, vs control; gel spot 18", "procedure": "as §1, §2, §3, §4"}, "[4]": {"tested_on": "Lymphotactin [precursor] (Cytokine SCM-1; Small inducible cytokine C1)", "test": "2-DE proteome analysis of rat hippocampus: Lymphotactin", "settings": "rat hippocampus cytosolic extract, 10 mg/kg i.p. daily 14 days, vs control; gel spot 80", "procedure": "as §1, §2, §3, §4"}, "[5]": {"tested_on": "Transcription factor BTEB 1", "test": "2-DE proteome analysis of rat hippocampus: BTEB 1", "settings": "rat hippocampus cytosolic extract, 10 mg/kg i.p. daily 14 days, vs control; gel spot 19", "procedure": "as §1, §2, §3, §4"}, "IGF-1 A precursor": {"tested_on": "IGF-1 A precursor", "test": "2-DE proteome analysis of rat hippocampus after antidepressant treatment: IGF-1 A precursor", "settings": "rat hippocampus cytosolic extract, 10 mg/kg i.p. daily 14 days, vs control; gel spot 87", "procedure": "as §1, §2, §3, §4"}, "[6]": {"tested_on": "Pyruvate Dehydrogenase E1 component beta subunit, mitochondrial (precursor)", "test": "2-DE proteome analysis of rat hippocampus: Pyruvate Dehydrogenase E1 beta", "settings": "rat hippocampus cytosolic extract, 10 mg/kg i.p. daily 14 days, vs control; gel spot 26", "procedure": "as §1, §2, §3, §4"}, "[7]": {"tested_on": "60S Ribosomal Protein L18A", "test": "2-DE proteome analysis of rat hippocampus: Ribosomal Protein L18A", "settings": "rat hippocampus cytosolic extract, 10 mg/kg i.p. daily 14 days, vs control; gel spot 58", "procedure": "as §1, §2, §3, §4"}}, "data": [{"smiles": "CNCCC(Oc1ccc(C(F)(F)F)cc1)c1ccccc1", "note": "(stereo not drawn) [Fluoxetine, fluoxetine]", "values": [{"measurement": "Fold change, 60S Ribosomal Protein L35A", "setting": "[1]", "result": 2.2, "unit": "Fold change"}, {"measurement": "Fold change, D-dopachrome tautomerase", "setting": "D-dopachrome tautomerase", "result": 2.2, "unit": "Fold change"}, {"measurement": "Fold change, Hydroxysteroid sulfotransferase A", "setting": "[2]", "result": 2, "unit": "Fold change"}, {"measurement": "Fold change, NG, NG-Dimethylarginine Dimethylaminohydrolase 1 (DDAH1)", "setting": "[3]", "result": 1.6, "unit": "Fold change"}, {"measurement": "Fold change, Lymphotactin [precursor]", "setting": "[4]", "result": 2, "unit": "Fold change"}, {"measurement": "Fold change, Transcription factor BTEB 1", "setting": "[5]", "result": 1.6, "unit": "Fold change"}, {"measurement": "Fold change, IGF-1 A precursor", "setting": "IGF-1 A precursor", "result": 2.5, "unit": "Fold change"}, {"measurement": "Fold change, Pyruvate Dehydrogenase E1 component beta subunit", "setting": "[6]", "result": 3.2, "unit": "Fold change"}, {"measurement": "Fold change, 60S Ribosomal Protein L18A", "setting": "[7]", "result": 1.8, "unit": "Fold change"}]}, {"smiles": "COc1ccc(C(CN(C)C)C2(O)CCCCC2)cc1", "note": "(stereo not drawn) [Venlafaxine, venlafaxine]", "values": [{"measurement": "Fold change, 60S Ribosomal Protein L35A", "setting": "[1]", "result": 2.5, "unit": "Fold change"}, {"measurement": "Fold change, D-dopachrome tautomerase", "setting": "D-dopachrome tautomerase", "result": 2.3, "unit": "Fold change"}, {"measurement": "Fold change, Hydroxysteroid sulfotransferase A", "setting": "[2]", "result": 2, "unit": "Fold change"}, {"measurement": "Fold change, NG, NG-Dimethylarginine Dimethylaminohydrolase 1 (DDAH1)", "setting": "[3]", "result": 2.2, "unit": "Fold change"}, {"measurement": "Fold change, Lymphotactin [precursor]", "setting": "[4]", "result": 1.9, "unit": "Fold change"}, {"measurement": "Fold change, Transcription factor BTEB 1", "setting": "[5]", "result": 2.3, "unit": "Fold change"}, {"measurement": "Fold change, IGF-1 A precursor", "setting": "IGF-1 A precursor", "result": 2.9, "unit": "Fold change"}, {"measurement": "Fold change, Pyruvate Dehydrogenase E1 component beta subunit", "setting": "[6]", "result": 2.6, "unit": "Fold change"}, {"measurement": "Fold change, 60S Ribosomal Protein L18A", "setting": "[7]", "result": 2.9, "unit": "Fold change"}]}]}
